Experimental data reported in ChEMBL document CHEMBL5120754, “Structural modification aimed for improving solubility of lead compounds in early phase drug discovery” (Bioorg Med Chem, 2022).
≈ marks a conversion by molar mass, not a printed value.

Experiments:
[1] = system: Mycobacterium tuberculosis; assay: microbe, parasite or virus in culture
physchem [2] = conditions: buffer
[3] = buffer
MCF7 = assay: Antiproliferative activity against ER-positive human MCF7 cells after 48 hrs by MTT assay; type: functional, cell-based; conditions: MCF7, 48 h
physchem [4] = conditions: octanol/water
[5] = biological target: T1, Peroxisome proliferator-activated receptor delta (Homo sapiens, UniProt Q03181); assay: Partial agonist activity at PPARdelta (unknown origin)
T1 sequence (Q03181 whole entry): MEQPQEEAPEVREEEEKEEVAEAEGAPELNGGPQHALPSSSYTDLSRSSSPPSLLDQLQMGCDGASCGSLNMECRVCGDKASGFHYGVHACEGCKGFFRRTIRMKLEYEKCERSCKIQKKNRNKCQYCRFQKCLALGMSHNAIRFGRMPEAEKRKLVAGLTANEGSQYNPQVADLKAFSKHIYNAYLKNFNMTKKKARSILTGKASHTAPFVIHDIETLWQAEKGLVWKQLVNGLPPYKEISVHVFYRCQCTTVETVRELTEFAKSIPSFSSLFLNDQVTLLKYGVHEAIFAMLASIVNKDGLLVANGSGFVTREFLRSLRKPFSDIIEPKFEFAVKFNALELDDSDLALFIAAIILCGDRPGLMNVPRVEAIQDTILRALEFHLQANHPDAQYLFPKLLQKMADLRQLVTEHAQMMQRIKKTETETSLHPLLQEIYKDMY

[6] = Lipophilicity, logD of compound; type: physicochemical; conditions: octanol/water
[7] = system: Human immunodeficiency virus 1; assay: Antiviral activity against HIV-1; type: functional, organism-based
Plasmepsin II = Plasmepsin II (Plasmodium falciparum, UniProt P46925); assay: Inhibition of Plasmodium falciparum 3D7 plasmepsin II
Chain of Plasmepsin II (P46925 whole entry): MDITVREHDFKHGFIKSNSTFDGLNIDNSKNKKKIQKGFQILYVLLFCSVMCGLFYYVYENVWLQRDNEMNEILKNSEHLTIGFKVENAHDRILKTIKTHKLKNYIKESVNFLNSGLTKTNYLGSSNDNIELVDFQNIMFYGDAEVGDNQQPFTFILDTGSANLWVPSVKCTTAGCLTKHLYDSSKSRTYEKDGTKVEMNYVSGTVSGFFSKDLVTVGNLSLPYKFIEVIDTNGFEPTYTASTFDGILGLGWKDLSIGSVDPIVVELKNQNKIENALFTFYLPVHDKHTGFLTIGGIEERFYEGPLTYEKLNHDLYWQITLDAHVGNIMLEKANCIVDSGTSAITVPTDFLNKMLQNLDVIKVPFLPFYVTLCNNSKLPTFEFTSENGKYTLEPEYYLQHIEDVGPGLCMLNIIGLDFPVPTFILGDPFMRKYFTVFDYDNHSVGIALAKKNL

[8] = Permeability of compound in human Caco-2 cells; type: ADME, cell-based; conditions: read-out: permeability

Row | SMILES | solubility thermodynamic (physchem [2]) | also measured
1 | Cc1cc(NC(=O)NC23CC4CC(CC(C4)C2)C3)no1 | 25.9 µg/mL | MIC [1]: 27 µg/mL (≈ 98.1 µM)
2 | COc1ccc2c3c(c4cc(OC)c(OC)cc4c2c1)C[C@H]1CCCN1C3 [(-)-ANTOFINE] |  | Therm_solubility [3]: 1 µg/mL
3 | CCn1nc(-c2cccc(Cl)c2)nc2c(=O)n(C)c(=O)nc1-2 | 28.5 µM | 
4 | Oc1nc2cc(Cl)c(Cl)c(Cn3cncn3)c2nc1O | 10 µg/mL | 
5 | C=C1C(=O)[C@]23[C@H](O)[C@H]1CC[C@H]2[C@@]12CO[C@]3(O)[C@@H](O)[C@@H]1C(C)(C)CC[C@@H]2O [ORIDONIN] | 1290 µg/mL | IC50 (MCF7): 6600 nM
6 | Cc1c(-c2ccc(-c3ccc(OC(F)(F)F)cc3)nc2)[nH]c2ccccc2c1=O |  | logP (physchem [4]): 4.2
7 | CCCCOc1ccc(-c2c(C)ncc(C(=O)O)c2C)cc1CNC(=O)c1ccc(C(F)(F)F)cc1F |  | EC50 [5]: 76 nM
8 | CCCCOc1ccc(-c2cccc(C(=O)O)c2)cc1CNC(=O)c1ccc(C(F)(F)F)cc1F |  | EC50 [5]: 170 nM; Therm_solubility [3]: 1 µg/mL
9 | Cc1nc(N2CCN(c3ncc(OCc4ccncc4C#N)cn3)CC2)no1 |  | logD [6]: 4
10 | COCCCc1nc(CCOc2ccc(CC(Nc3ccccc3C(=O)c3ccccc3)C(=O)O)cc2)c(C)s1 (stereo unspecified) | 210 µg/mL | 
11 | CCCCOc1ccc(-c2cncc(C(=O)O)c2)cc1CNC(=O)c1ccc(C(F)(F)F)cc1F | 7.6 µg/mL | EC50 [5]: 220 nM
12 | CN(C)CCNC(=O)c1cccc(-c2c[nH]c(/C=C3\C(=O)Nc4ccc(NC(N)=O)cc43)c2)c1 | 13 µg/mL | 
13 | CC(C)(C)OC(=O)N1CCN(c2ncc(OCc3ccncc3C#N)cn2)CC1 | 24 µM | logD [6]: 3.3
14 | C[C@H]1[C@H](COP(=O)([O-])[O-])OC(=O)N1c1ccc(-c2ccc([C@@H]3CN(C)C(=O)O3)nc2)cc1O.[Na+].[Na+] | 227000 µg/mL | 
15 | Cc1cc(/C=C/C#N)cc(C)c1Oc1nc(Nc2ccc(CN3CCN(S(C)(=O)=O)CC3)cc2)nc(N)c1Br | 30.9 µg/mL | EC50 [7]: 7.5 nM
16 | Cc1sc(-c2ccccc2)nc1CCOc1ccc(CC(Nc2ccccc2C(=O)c2ccccc2)C(=O)O)cc1 (stereo unspecified) | 1 µg/mL | 
17 | O=c1nc2n(CCCC(F)(F)F)nc(-c3cccc(C(F)(F)F)c3)nc-2c(=O)n1CCC1CC1 | 200 µM | 
18 | NC(=O)NCCSc1nc(N)nc(-c2c(Cl)cc3c4c(cccc24)COC3)n1 | 773 µM | 
19 | COc1cc2[nH]c(C)c(-c3ccccc3)c(=O)c2cc1Cl | 6 µM | logD [6]: 1.65
20 | Nc1ncc(-c2nc(N3CCOCC3)nc3c2CCN3C(=O)Nc2ccccc2)cn1 | 3 µg/mL | 
21 | CCCCCCCc1c(C)nc2cc(OC)ccc2c1O | 2 µM | logD [6]: 3.69
22 | CCCCCn1cc(C(=O)NC23CC4CC(CC(C4)C2)C3)c(=O)c2ccc(F)cc21 | 0.014 µg/mL | 
23 | CCCN(CCOC)c1cc(C)nc2c(-c3ccc(OC)cc3OC)c(C)nn12 | 10000 µg/mL | logD [6]: 2.78

Row | SMILES | solubility thermodynamic (physchem [2]) | also measured
24 | NC(=O)Nc1ccc2c(c1)/C(=C/c1ccc[nH]1)C(=O)N2 | 2000 µg/mL | 
25 | O=C(Nc1nnc(C2CC2)o1)NC12CC3CC(CC(C3)C1)C2 | 38.3 µg/mL | MIC [1]: 12.5 µg/mL (≈ 41.3 µM)
26 | C=C1C(=O)[C@]23[C@H](O)[C@H]1CC[C@H]2[C@@]12CO[C@]3(O)[C@@H](O)[C@@H]1C(C)(C)Cc1sc(C)nc12 | 4400 µg/mL | IC50 (MCF7): 2600 nM
27 | Cc1sc(N2CCOCC2)nc1CCOc1ccc(CC(Nc2ccccc2C(=O)c2ccccc2)C(=O)O)cc1 (stereo unspecified) | 180 µg/mL | 
28 | CC1CC(=O)Oc2c1ccc1c2[C@@H](OC(=O)[C@@]23CC[C@@](C)(C(=O)O2)C3(C)C)[C@@H](OC(=O)[C@@]23CC[C@@](C)(C(=O)O2)C3(C)C)C(C)(C)O1 (stereo partly specified) |  | logP (physchem [4]): 4.82; EC50 [7]: 1.5 nM
29 | Nc1nc2cc(-c3ccc(CCCc4ccccc4)cc3)cc(CCC(=O)O)c2c(=O)n1CC1CCCO1 (stereo unspecified) |  | IC50 (Plasmepsin II): 16700 nM; Therm_solubility [3]: 0.17 µg/mL
30 | CC(=O)Nc1nc2c(Oc3cc(-c4ccc(C(F)(F)F)cc4)ncn3)cccc2s1 [AMG-517] | 1 µg/mL | 
31 | CCCOc1ccc(CC(Cc2ccccc2)C(=O)O)cc1CNC(=O)c1ccc(C23CC4CC(CC(C4)C2)C3)cc1 (stereo unspecified) | 1 µg/mL | 
32 | COc1ccc(-c2oc3cc(O[C@@H]4O[C@H](CO[C@@H]5O[C@@H](C)[C@H](O)[C@@H](O)[C@H]5O)[C@@H](O)[C@H](O)[C@H]4O)cc(O)c3c(=O)c2Br)cc1O | 100000 µg/mL | logP (physchem [4]): 0.93
33 | C/C(=C1/C(=O)Nc2ccc(NC(N)=O)cc21)c1cc(CNC(=O)C2CCNCC2)c[nH]1 | 17 µg/mL | 
34 | Cc1cc2ccccc2n1CCNC(=O)c1ccc(-c2nnn[nH]2)cc1 |  | Therm_solubility [3]: 0.257 µM
35 | C=CC(=O)Nc1cccc(N2C(=O)N(Cc3ccccc3)Cc3cnc(Nc4ccc(N5CCN(C)CC5)cc4OC)nc32)c1 |  | Therm_solubility [3]: 4000 µg/mL
36 | CCCCCc1ccc(-c2cc(-c3ccc(C(=O)O)cc3)c3c(=O)n(CC4CCC(c5ccccc5)O4)c(N)nc3c2)cc1 (stereo unspecified) | 0.01 µg/mL | IC50 (Plasmepsin II): 740 nM
37 | O=c1cc(-c2c(F)cccc2F)oc2ccc3ccccc3c12 | 153 µg/mL | 
38 | CC(=O)NC[C@@H]1OC(=O)N2c3ccc(-c4ccc(C#N)nc4)cc3OC[C@@H]12 | 10 µg/mL | 
39 | COc1c(C(=O)Nc2ccc(NS(C)(=O)=O)cc2)cc(N2CCC(=O)NC2=O)cc1C(C)(C)C | 1500 µg/mL | 
40 | Cn1nnc(-c2ccc(-c3ccc(N4C[C@H](COP(=O)(O)O)OC4=O)cc3F)cn2)n1 [TEDIZOLID PHOSPHATE] | 50000 µg/mL | 
41 | C=C1C(=O)[C@]23[C@H](O)[C@H]1CC[C@H]2[C@@]12CO[C@]3(O)[C@@H](O)[C@@H]1C(C)(C)Cc1sc(NC)nc12 | 42400 µg/mL | IC50 (MCF7): 1300 nM
42 | CN(C)CCn1cc(C(=O)NC23CC4CC(CC(C4)C2)C3)c(=O)c2ccc(F)cc21 | 5.6 µg/mL | 
43 | COc1cnc(-n2cnc(C)n2)c2[nH]cc(C(=O)C(=O)N3CCN(C(=O)c4ccccc4)CC3)c12 | 147 µg/mL | 
44 | CN1C(=O)CCC(N2C(=O)c3ccccc3C2=O)C1=O (stereo unspecified) | 276 µg/mL | 
45 | CC1c2ccc3c(c2OC(=O)C1CO)[C@@H](OC(=O)[C@@]12CC[C@@](C)(C(=O)O1)C2(C)C)[C@@H](OC(=O)[C@@]12CC[C@@](C)(C(=O)O1)C2(C)C)C(C)(C)O3 (stereo partly specified) |  | logP (physchem [4]): 3.62; EC50 [7]: 4 nM
46 | COc1cnc(-n2cnc(C)n2)c2c1c(C(=O)C(=O)N1CCN(C(=O)c3ccccc3)CC1)cn2COP(=O)(O)O [FOSTEMSAVIR] | 11000 µg/mL | 

Row | SMILES | solubility thermodynamic (physchem [2]) | also measured
47 | CCC1(O)C(=O)OCc2c1cc1n(c2=O)Cc2c-1nc1ccc(O)cc1c2CN(C)C (stereo unspecified) | 1000 µg/mL | 
48 | CC(C)(C)OC(=O)N1CCN(c2ncc(OCc3ccc(S(C)(=O)=O)cc3)cn2)CC1 | 0.03 µM | 
49 | FC(F)(F)c1c(N2CCC(c3ccccc3)CC2)ccn2c(CC3CC3)nnc12 |  | logP (physchem [4]): 4.6; Papp [8]: 12 ×10⁻⁶ cm/s
50 | COc1cc(NCc2cc3cc(Cl)ccc3[nH]c2=O)ccc1C#N | 0.43 µM | 
51 | C=CCNc1nc2c(s1)CC(C)(C)[C@H]1[C@H](O)[C@@]3(O)OC[C@@]21[C@@H]1CC[C@H]2C(=C)C(=O)[C@]13[C@@H]2O | 81200 µg/mL | IC50 (MCF7): 200 nM
52 | Cn1cc(NC(=O)NC23CC4CC(CC(C4)C2)C3)cn1 | 41.1 µg/mL | MIC [1]: 50 µg/mL (≈ 182 µM)
53 | O=C(NCCN1CCCC1)c1cc(-c2ccc(CN3CCOCC3)cc2)nc2ccc(F)cc12 [CABAMIQUINE] | 216 µM | 
54 | COc1cc(NCc2cc3cc(C)c(C)cc3[nH]c2=O)ccc1-n1cnnn1 | 0.04 µM | 
55 | c1cn2cc(-c3ccc4cn[nH]c4c3)nc(Nc3ccc(N4CCOCC4)cc3)c2n1 [ENTOSPLETINIB] | 28 µg/mL | 
56 | Cc1c(-c2ccc(Cc3ccc(OC(F)(F)F)cc3)cc2)[nH]c2cc(Cl)ccc2c1=O |  | logP (physchem [4]): 6.4
57 | O=C1NC(c2ccccc2)(c2ccccc2)C(=O)N1COP(=O)([O-])O.[Na+] | 142000 µg/mL | 
58 | COc1cc2c(cc1OC)CN(C(=O)/C=C/c1c(-c3ccccc3)n(C)c3ncccc13)CC2 |  | Therm_solubility [3]: 141 µg/mL
59 | Nc1nc2cc(-c3ccc(CCCc4ccccc4)cc3)ccc2c(=O)n1CC1CCC(c2ccccc2)O1 (stereo unspecified) | < 0.01 µg/mL | IC50 (Plasmepsin II): 3200 nM
60 | Cc1cc(C#N)cc(C)c1Oc1nc(Nc2ccc(C#N)cc2)nc(N)c1Br [ETRAVIRINE] |  | Therm_solubility [3]: 1 µg/mL
61 | Cc1sc(N2CCNCC2)nc1CCOc1ccc(CC(Nc2ccccc2C(=O)c2ccccc2)C(=O)O)cc1 (stereo unspecified) | 10000 µg/mL | 
62 | Cn1nnc(-c2ccc(-c3ccc(N4C[C@H](CO)OC4=O)cc3F)cn2)n1 [TEDIZOLID] | 136 µg/mL | 
63 | NC(=O)Nc1ccc2c(c1)/C(=C/c1cc(-c3ccccn3)c[nH]1)C(=O)N2 | 29 µg/mL | 
64 | O=C1CCC(N2C(=O)c3ccccc3C2=O)C(=O)N1 (stereo unspecified) [THALIDOMIDE] | 52 µg/mL | 
65 | COc1ccc(CNc2c3c(nc4ccc(C#N)cc24)CCN(C(C)=O)C3)cc1Cl | 500 µM | 
66 | O=C(C(=O)N1CCN(C(=O)c2ccccc2)CC1)c1c[nH]c2c(-n3ccnn3)ncc(F)c12 | 7 µg/mL | EC50 [7]: 0.006 nM
67 | O=C1NC(=O)C(c2ccccc2)(c2ccccc2)N1 [PHENYTOIN] |  | Therm_solubility [3]: 20000 µg/mL
68 | CCCCCc1ccc(-c2cc(CCC(=O)O)c3c(=O)n(CC4CCCO4)c(N)nc3c2)cc1 (stereo unspecified) | 0.1 µg/mL | IC50 (Plasmepsin II): 50 nM
